# Laboratory results: ChEMBL document CHEMBL1158256, “Betulinans A and B, two benzoquinone compounds from Lenzites betulina” (J Nat Prod, 1996)
# Tested on: Liver microsomes
# Experiment: Inhibition of lipid peroxidation in rat liver microsomes
# Format: functional, Microsome
row,Compound,IC50
1,VITAMIN E,1.68 µg/mL
2,COC1=C(c2ccccc2)C(=O)C(OC)=C(c2ccccc2)C1=O [BETULINAN A],0.46 µg/mL
3,COC1=C(c2ccccc2)C(=O)C2=C(C1=O)c1ccccc1CO2 [BETULINAN B],2.88 µg/mL
